Test results published in patent US7718688B2, “Nitrobenzindoles and their use in cancer therapy” (Auckland Uniservices Limited, priority 2004, dated 2010).
Where a name gives a salt, the structure may show the parent alone.

How the values were obtained:
[1] = tested on: HT29: human colon cancer cell line; assay: Proliferation IC50 assay, oxic/hypoxic, HT29; type: cell-based; details: Table 3; for IC50: Homo sapiens, HT-29, 4 h exposure under aerobic conditions; for HCR (hypoxic cytotoxicity ratio) HT29: IC50(aerobic)/IC10(hypoxic)
[2] = tested on: SKOV3: human ovarian carcinoma cell line; assay: Proliferation IC50 assay, oxic/hypoxic, SKOV3; type: cell-based; details: Table 3; for IC50: Homo sapiens, SK-OV-3, 4 h exposure under aerobic conditions; for HCR (hypoxic cytotoxicity ratio) SKOV3: IC50(aerobic)/IC10(hypoxic)

Row | SMILES | melting point [°C] | IC50 [1] [nM] | HCR (hypoxic cytotoxicity ratio) HT29 [1] | IC50 [2] [nM] | HCR (hypoxic cytotoxicity ratio) SKOV3 [2]
1 | CN(C)CCOc1ccc2[nH]c(C(=O)N3CC(CCl)c4c3cc([N+](=O)[O-])c3ccc(S(C)(=O)=O)cc43)cc2c1 (stereo not shown) (as salt: HCl) [Compound 47, 1-(Chloromethyl)-3-{5-[2-(dimethylamino)ethoxy]indol-2-carbonyl}-8-(methylsulfonyl)-5-nitro-1,2-dihydro-3H-benzo[e]indole] | > 300 |  |  |  | 
2 | CN(C)CCOc1ccc2[nH]c(C(=O)N3CC(CCl)c4c3cc([N+](=O)[O-])c3cccc([N+](=O)[O-])c43)cc2c1 (stereo not shown) (as salt: HCl) [Compound 52, 1-(Chloromethyl)-3-{5-[2-(dimethylamino)ethoxy]indol-2-carbonyl}-5,9-dinitro-1,2-dihydro-3H-benzo[e]indole] | 187 to 191 |  |  |  | 
3 | CN(C)CCOc1ccc2[nH]c(C(=O)N3CC(CCl)c4c3cc([N+](=O)[O-])c3ccc(C(N)=O)cc43)cc2c1 (stereo not shown) (as salt: TFA) [Compound 43, 1-(Chloromethyl)-3-{5-[2-(dimethylamino)ethoxy]indol-2-carbonyl}-5-nitro-1,2-dihydro-3H-benzo[e]indole-8-carboxamide] | > 320 |  |  |  | 
4 | COc1cc2cc(C(=O)N3CC(CCl)c4c3cc([N+](=O)[O-])c3c([N+](=O)[O-])cccc43)[nH]c2c(OC)c1OC (stereo not shown) [Compound 1, 1-(Chloromethyl)-5,6-dinitro-3-(5,6,7-trimethoxyindol-2-carbonyl)-1,2-dihydro-3H-benzo[e]indole] | 278 to 279 | 18000 | <1 | > 20000 | 
5 | COc1cc2cc(C(=O)N3CC(CCl)c4c3cc([N+](=O)[O-])c3c(C(C)=O)cccc43)[nH]c2c(OC)c1OC (stereo not shown) [Compound 3, 6-Acetyl-1-(chloromethyl)-5-nitro-3-(5,6,7-trimethoxyindol-2-carbonyl)-1,2-dihydro-3H-benzo[e]indole] | 180 to 183 | 680 | 2.0 | 500 | 3.4
6 | CN(C)CCOc1ccc2[nH]c(C(=O)N3CC(CCl)c4c3cc([N+](=O)[O-])c3cc(N)ccc43)cc2c1 (stereo not shown) [Compound 10, 7-Amino-1-(chloromethyl)-3-{5-[2-(dimethylamino)ethoxy]indol-2-carbonyl}-5-nitro-1,2-dihydro-3H-benzo[e]indole] | > 300 | 1800 | 2.4 | 2500 | 2.0
7 | CC(=O)c1ccc2c3c(cc([N+](=O)[O-])c2c1)N(C(=O)c1cc2cc(OCCN(C)C)ccc2[nH]1)CC3CCl (stereo not shown) [Compound 12, 7-Acetyl-1-(chloromethyl)-3-{5-[2-(dimethylamino)ethoxy]indol-2-carbonyl}-5-nitro-1,2-dihydro-3H-benzo[e]indole] | > 350 | 170 | 1.5 | 640 | 4.0
8 | COc1cc2cc(C(=O)N3CC(CCl)c4c3cc([N+](=O)[O-])c3cc(C(=O)NCCO)ccc43)[nH]c2c(OC)c1OC (stereo not shown) [Compound 17, 1-(Chloromethyl)-N-(2-hydroxyethyl)-5-nitro-3-(5,6,7-trimethoxyindol-2-carbonyl)-1,2-dihydro-3H-benzo[e]-indole-7-carboxamide] | 244 to 245 | 5700 | 1.7 |  | 
9 | COc1cc2cc(C(=O)N3CC(CCl)c4c3cc([N+](=O)[O-])c3cc(S(=O)(=O)NCCO)ccc43)[nH]c2c(OC)c1OC (stereo not shown) [Compound 33, 1-(Chloromethyl)-N-(2-hydroxyethyl)-5-nitro-3-(5,6,7-trimethoxyindol-2-carbonyl)-1,2-dihydro-3H-benzo[e]indole-7-sulfonamide] | 257 to 258 |  |  | 13000 | 5.8
